# System: HeLa cells
# Experiment: CPP uptake experiment: cellular fluorescence of FAM-labeled CPPs
# Format: cell-based, human
# Conditions: FAM not coupled to a CPP; mean value and standard error of two measurements
# Method: The human cervix adenocarcinoma cell line HeLa was obtained from I.A.Z. (Munich, Germany). As cell growth medium DMEM/Ham’s F-12 (1:1) supplemented with 2 mM L-glutamine, 10% fetal bovine serum, and 1% penicillin/streptomycin (all Capricorn Scientific, Ebsdorfergrund, Germany, formerly PAA Laboratories) was used, and cells were cultured at 37 °C and 5% CO2. They were passaged before reaching confluence; for the experiments, cells at passages p8–p20 were used. For testing uptake efficiency and cytotoxicity of CPPs, cells were seeded in 96-well µ-plates (ibidi, Munich, Germany) at a concentration of 6 × 10^4 cells per well and incubated for 48 h to reach confluence before performing the experiments.
# All solutions used were warmed to 37 °C, with CPP incubation performed at 37 °C and 5% CO2. CPP working solutions were prepared in 96-well polypropylene plates (Corning, Amsterdam, Netherlands) directly before incubation by diluting the 50 µM FAM-labeled CPP stock solutions to 10 µM with cell growth medium. The confluent HeLa cells in the 96-well µ-plates were exposed to 100 µl of a 10 µM CPP working solution per well for 90 min. Cell growth medium served as negative control. After incubation, the cells were washed twice with 300 µl of CM-PBS (PAA Laboratories), then 100 µl CM-PBS was added before determining fluorescence intensities in a plate reader (SpectraMax M5, Molecular Devices, Sunnyvale, CA) at an excitation wavelength of 495 nm and an emission wavelength of 530 nm. Transmission images of the treated cell layers were taken using a MORE microscope (TILL Photonics, Munich, Germany) equipped with a 10×/0.45 objective (Zeiss, Jena, Germany), an FITC filterset (ET480_40x/ET535_50 m/T510LPXRXT, Chroma, Rockingham, NC) and LED and oligochrome light source (FEI). Images were acquired using a Stingray F-145B CCD camera (Allied Vision Tech., Stadtroda, Germany) via live acquisition software (v2.2.2, FEI).
row,Substance,Uptake of FAM without CPP into the HeLa layer [RFU]
1,"5(6)-carboxyfluorescein [FAM, reference compound]",14.3 ± 8.1

# Same assay, conditions: HeLa cells after incubation with 10 µM FAM-labeled CPP, 90 min, 37 °C; mean of two experiments (Table 1)
row,Substance,Fluorescence (RFU)
1,CWKKKKKKKKKKKKKKKKKK [compound 429],417.94
2,GLFKALLKLLKSLWKLLLKA [compound 431],326.66
3,GLWRALWRALRSLWKLKRKV [compound 425],384.64
4,GLWRALWRGLRSLWKKKRKV [compound 427],375.17
5,GLWRALWRGLRSLWKLKRKV [compound 426],347.66
6,KALAKALAKLWKALAKAA [compound 373],345.58
7,"KKKKKKKKKKKKKKKKKKK [compound 412, designed model peptide, FAM-labeled CPP]",632.01
8,KLAAALLKKWKKLAAALL [compound 375],335.89
9,"KLALKLALKALKAALK [compound 296, designed model peptide, FAM-labeled CPP]",478.40
10,KLALKLALKALKAALKLA [compound 405],440.41
11,KLALKLALKAWKAALKLA [compound 372],309.34
12,"KTVLLRKLLKLLVRKI [compound 342, designed model peptide, FAM-labeled CPP]",855.56
13,LIRLWSHLIHIWFQNRRLKWKKK [compound 466],425.60
14,LLKKRKVVRLIKFLLK [compound 343],435.30
15,LNSAGYLLGKINLKALAALAKKIL [compound 473],422.13
16,PKKKRKVALWKTLLKKVLKA [compound 415],390.81
17,RQARRNRRRALWKTLLKKVLKA [compound 446],450.97
18,"VKRKKKPALWKTLLKKVLKA [compound 416, CPP derived from the antimicrobial peptide dermaseptin S4 attached to a nuclear localization signal, FAM-labeled]",925.42
19,WLRRIKAWLRRIKALNRQLGVAA [compound 471],1011.42
20,YTAIAWVKAFIRKLRK [compound 351],401.31
